The text below walks through data of ChEMBL document CHEMBL1909046, “DrugMatrix in vitro pharmacology data”.

Vasopressin V1a receptor, sequence (P37288 whole entry): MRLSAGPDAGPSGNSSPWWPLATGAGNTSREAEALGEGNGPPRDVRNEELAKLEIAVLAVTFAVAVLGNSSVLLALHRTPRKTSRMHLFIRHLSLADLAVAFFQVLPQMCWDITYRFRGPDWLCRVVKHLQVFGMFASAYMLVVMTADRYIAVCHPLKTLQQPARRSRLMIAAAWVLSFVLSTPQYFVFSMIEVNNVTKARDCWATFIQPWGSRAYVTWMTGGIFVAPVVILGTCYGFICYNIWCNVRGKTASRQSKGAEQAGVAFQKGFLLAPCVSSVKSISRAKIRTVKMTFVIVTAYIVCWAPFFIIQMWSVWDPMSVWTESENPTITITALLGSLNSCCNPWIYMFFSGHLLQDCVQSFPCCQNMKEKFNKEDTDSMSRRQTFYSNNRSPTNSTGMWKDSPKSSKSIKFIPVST
Sodium-dependent noradrenaline transporter, sequence (P23975 whole entry): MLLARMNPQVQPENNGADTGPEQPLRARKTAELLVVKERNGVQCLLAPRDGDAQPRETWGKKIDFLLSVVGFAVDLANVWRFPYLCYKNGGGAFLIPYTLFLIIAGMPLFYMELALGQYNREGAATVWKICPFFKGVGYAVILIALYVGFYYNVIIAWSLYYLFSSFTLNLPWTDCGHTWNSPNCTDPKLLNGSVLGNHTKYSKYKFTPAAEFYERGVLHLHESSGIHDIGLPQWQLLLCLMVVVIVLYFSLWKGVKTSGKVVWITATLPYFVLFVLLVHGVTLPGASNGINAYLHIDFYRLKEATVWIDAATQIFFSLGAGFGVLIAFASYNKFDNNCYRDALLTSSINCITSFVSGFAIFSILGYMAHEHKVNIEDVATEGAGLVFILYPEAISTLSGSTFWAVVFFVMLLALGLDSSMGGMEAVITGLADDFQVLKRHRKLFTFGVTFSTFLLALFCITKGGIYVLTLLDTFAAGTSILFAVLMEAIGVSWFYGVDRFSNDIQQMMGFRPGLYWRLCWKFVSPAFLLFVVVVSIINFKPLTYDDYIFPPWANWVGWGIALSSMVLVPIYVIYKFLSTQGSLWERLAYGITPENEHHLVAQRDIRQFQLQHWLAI

One experiment has as its target T1, Alpha-2C adrenergic receptor (Homo sapiens, UniProt P18825).
T1 sequence (P18825 whole entry): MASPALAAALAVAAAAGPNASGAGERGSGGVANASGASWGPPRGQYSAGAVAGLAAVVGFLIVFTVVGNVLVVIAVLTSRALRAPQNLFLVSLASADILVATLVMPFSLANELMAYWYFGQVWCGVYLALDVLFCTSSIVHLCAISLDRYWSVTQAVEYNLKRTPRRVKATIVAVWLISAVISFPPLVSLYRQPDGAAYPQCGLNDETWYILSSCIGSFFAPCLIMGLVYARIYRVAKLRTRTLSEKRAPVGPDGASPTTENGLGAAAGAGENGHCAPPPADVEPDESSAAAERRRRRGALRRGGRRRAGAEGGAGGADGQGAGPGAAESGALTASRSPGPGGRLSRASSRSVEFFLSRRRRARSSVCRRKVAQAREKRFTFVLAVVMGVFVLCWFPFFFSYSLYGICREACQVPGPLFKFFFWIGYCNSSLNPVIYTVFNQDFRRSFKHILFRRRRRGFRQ
In words: DRUGMATRIX: Adrenergic Alpha-2C radioligand binding (ligand: [3H] MK-912). The note with it: sf9. The format is cell membranes, Sf9, Membrane.
Take `CCCNCC(O)COc1ccccc1C(=O)CCc1ccccc1` (stereo not given) [PROPAFENONE]: the IC50 result is reported as “Not Active”.

Turning to `C[C@@H]1O[C@@H](O[C@@H]2C=C3CC[C@@H]4[C@H](CC[C@]5(C)[C@@H](c6ccc(=O)oc6)CC[C@]45O)[C@@]3(C)CC2)[C@H](O)[C@H](O)[C@H]1O` [PROSCILLARIDIN], the IC50 entry is reported as “Not Active”.

Consider AURANOFIN, for which the IC50 result is “Not Active” and the Ki result was “Not Active”.

In the case of GADOPENTETATE DIMEGLUMINE, the IC50 result is listed as “Not Active” and the Ki result was “Not Active”.

For the compound GENTAMICIN, the IC50 result is given as “Not Active” and the Ki result is “Not Active”.

In the case of GRAMICIDIN, the IC50 result is “Not Active” and the Ki entry is “Not Active”.

Turning to NYSTATIN, the IC50 entry is “Not Active” and the Ki result is listed as “Not Active”.

A further experiment has as its target Sodium-dependent noradrenaline transporter (Homo sapiens, UniProt P23975). Description: DRUGMATRIX: Norepinephrine Transporter radioligand binding (ligand: [125I] RTI-55). Type of experiment: cell membranes, MDCK, Membrane. As to conditions: mdck; Not Active = under 50% inhibition at 10 µM.
As for `COc1cc(N)c(Cl)cc1C(=O)NC1CCN(CCCOc2ccc(F)cc2)CC1OC` (stereo not given) [CISAPRIDE], the IC50 entry was “Not Active”.

Consider `N=C(N)NC(=O)Cc1c(Cl)cccc1Cl` [GUANFACINE], for which the IC50 entry is given as “Not Active”.

With `COc1cc2nc(N3CCN(C(=O)c4ccco4)CC3)nc(N)c2cc1OC` [PRAZOSIN], the IC50 result is “Not Active”.

As to `C[C@@H]1O[C@@H](O[C@@H]2C=C3CC[C@@H]4[C@H](CC[C@]5(C)[C@@H](c6ccc(=O)oc6)CC[C@]45O)[C@@]3(C)CC2)[C@H](O)[C@H](O)[C@H]1O` [PROSCILLARIDIN], the IC50 entry is “Not Active”.

Take AURANOFIN: the IC50 result was “Not Active” and the Ki result is “Not Active”.

Regarding GADOPENTETATE DIMEGLUMINE, the IC50 result was “Not Active” and the Ki result is “Not Active”.

As for GENTAMICIN, the IC50 entry is “Not Active” and the Ki result is reported as “Not Active”.

Turning to GRAMICIDIN, the IC50 entry was “Not Active” and the Ki result is “Not Active”.

With NYSTATIN, the IC50 result is on record as “Not Active” and the Ki result is given as “Not Active”.

The next experiment addresses Vasopressin V1a receptor (Homo sapiens, UniProt P37288).
Test: not given
The format is cell membranes, Membrane. The note with it: hek293.
`COc1cc(N)c(Cl)cc1C(=O)NC1CCN(CCCOc2ccc(F)cc2)CC1OC` (stereo not given) [CISAPRIDE]: the IC50 entry was “Not Active”.

`N=C(N)NC(=O)Cc1c(Cl)cccc1Cl` [GUANFACINE]: the IC50 entry is “Not Active”.

As to `COc1cc2nc(N3CCN(C(=O)c4ccco4)CC3)nc(N)c2cc1OC` [PRAZOSIN], the IC50 entry is “Not Active”.

Regarding `CCCNCC(O)COc1ccccc1C(=O)CCc1ccccc1` (stereo not given) [PROPAFENONE], the IC50 result is “Not Active”.

Take `C[C@@H]1O[C@@H](O[C@@H]2C=C3CC[C@@H]4[C@H](CC[C@]5(C)[C@@H](c6ccc(=O)oc6)CC[C@]45O)[C@@]3(C)CC2)[C@H](O)[C@H](O)[C@H]1O` [PROSCILLARIDIN]: the IC50 result is reported as “Not Active”.

As for AURANOFIN, the IC50 result is recorded as “Not Active” and the Ki result was “Not Active”.

For GADOPENTETATE DIMEGLUMINE, the IC50 result is on record as “Not Active” and the Ki entry is on record as “Not Active”.

As for GENTAMICIN, the IC50 result is “Not Active” and the Ki entry is recorded as “Not Active”.

In the case of GRAMICIDIN, the IC50 entry is “Not Active” and the Ki entry is reported as “Not Active”.

On to NYSTATIN, for which the IC50 result is “Not Active” and the Ki result is recorded as “Not Active”.

A further experiment deals with T2, Polyunsaturated fatty acid lipoxygenase ALOX15 (Oryctolagus cuniculus, UniProt P12530).
T2 sequence (P12530 whole entry): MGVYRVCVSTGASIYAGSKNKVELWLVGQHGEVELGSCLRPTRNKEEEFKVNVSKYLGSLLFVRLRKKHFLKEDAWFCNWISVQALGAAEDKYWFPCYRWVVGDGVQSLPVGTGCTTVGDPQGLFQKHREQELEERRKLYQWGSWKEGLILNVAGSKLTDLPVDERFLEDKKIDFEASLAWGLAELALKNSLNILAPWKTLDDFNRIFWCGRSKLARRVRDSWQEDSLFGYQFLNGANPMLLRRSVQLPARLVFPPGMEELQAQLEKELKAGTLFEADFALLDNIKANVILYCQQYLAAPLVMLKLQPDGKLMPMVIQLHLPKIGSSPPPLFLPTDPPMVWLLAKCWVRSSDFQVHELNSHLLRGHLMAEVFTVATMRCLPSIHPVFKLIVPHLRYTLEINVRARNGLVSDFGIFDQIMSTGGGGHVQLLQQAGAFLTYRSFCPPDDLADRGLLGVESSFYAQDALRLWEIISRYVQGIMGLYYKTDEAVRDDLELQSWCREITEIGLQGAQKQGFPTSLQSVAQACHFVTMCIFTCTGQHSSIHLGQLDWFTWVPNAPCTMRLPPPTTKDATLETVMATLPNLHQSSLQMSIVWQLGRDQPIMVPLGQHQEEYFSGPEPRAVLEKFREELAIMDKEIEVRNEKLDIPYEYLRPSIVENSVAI
In words: biochemical. Type of experiment: tissue-based, Reticulocytes. As to conditions: reticulocytes.
Turning to `COc1cc(N)c(Cl)cc1C(=O)NC1CCN(CCCOc2ccc(F)cc2)CC1OC` (stereo not given) [CISAPRIDE], the IC50 result is listed as “Not Active”.

Take `N=C(N)NC(=O)Cc1c(Cl)cccc1Cl` [GUANFACINE]: the IC50 entry is “Not Active”.

For `COc1cc2nc(N3CCN(C(=O)c4ccco4)CC3)nc(N)c2cc1OC` [PRAZOSIN], the IC50 entry was “Not Active”.

For the compound `CCCNCC(O)COc1ccccc1C(=O)CCc1ccccc1` (stereo not given) [PROPAFENONE], the IC50 result was “Not Active”.

`C[C@@H]1O[C@@H](O[C@@H]2C=C3CC[C@@H]4[C@H](CC[C@]5(C)[C@@H](c6ccc(=O)oc6)CC[C@]45O)[C@@]3(C)CC2)[C@H](O)[C@H](O)[C@H]1O` [PROSCILLARIDIN]: the IC50 result is given as “Not Active”.

Consider AURANOFIN, for which the IC50 result is given as “Not Active” and the Ki result was “Not Active”.

As for GADOPENTETATE DIMEGLUMINE, the IC50 entry is given as “Not Active” and the Ki entry is “Not Active”.

On to GENTAMICIN, for which the IC50 result was “Not Active” and the Ki result is given as “Not Active”.

As for GRAMICIDIN, the IC50 entry was “Not Active” and the Ki entry was “Not Active”.

As to NYSTATIN, the IC50 entry was “Not Active” and the Ki result was “Not Active”.

Another experiment deals with Mu-type opioid receptor (Homo sapiens, UniProt P35372). In words: DRUGMATRIX: Opiate mu (OP3, MOP) radioligand binding (ligand: [3H] Diprenorphine). The format is cell membranes, CHO-K1, Membrane. As to conditions: cho-k1; Not Active = under 50% inhibition at 10 µM.
Mu-type opioid receptor, sequence (P35372 whole entry): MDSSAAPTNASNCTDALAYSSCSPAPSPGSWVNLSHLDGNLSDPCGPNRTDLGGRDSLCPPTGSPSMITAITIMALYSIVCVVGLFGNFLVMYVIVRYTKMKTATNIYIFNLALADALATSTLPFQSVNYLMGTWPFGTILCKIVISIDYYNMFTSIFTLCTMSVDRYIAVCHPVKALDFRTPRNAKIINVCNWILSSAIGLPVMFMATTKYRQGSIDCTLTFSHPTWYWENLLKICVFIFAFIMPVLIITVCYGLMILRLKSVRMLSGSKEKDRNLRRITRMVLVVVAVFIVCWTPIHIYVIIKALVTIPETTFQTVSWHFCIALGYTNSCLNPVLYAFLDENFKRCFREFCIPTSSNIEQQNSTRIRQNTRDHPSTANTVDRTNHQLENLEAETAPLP
As for `COc1cc(N)c(Cl)cc1C(=O)NC1CCN(CCCOc2ccc(F)cc2)CC1OC` (stereo not given) [CISAPRIDE], the IC50 entry is recorded as “Not Active”.

Consider `N=C(N)NC(=O)Cc1c(Cl)cccc1Cl` [GUANFACINE], for which the IC50 entry is “Not Active”.

Regarding `COc1cc2nc(N3CCN(C(=O)c4ccco4)CC3)nc(N)c2cc1OC` [PRAZOSIN], the IC50 entry is “Not Active”.

Consider `CCCNCC(O)COc1ccccc1C(=O)CCc1ccccc1` (stereo not given) [PROPAFENONE], for which the IC50 entry is on record as “Not Active”.

The target in another experiment is cGMP-specific 3',5'-cyclic phosphodiesterase (Homo sapiens, UniProt O76074). Description: DRUGMATRIX: Phosphodiesterase PDE5 enzyme inhibition (substrate: [3H]cGMP + cGMP). The format is tissue-based, Platelet. As to conditions: platelet; Not Active = under 50% inhibition at 10 µM.
As to `COc1cc(N)c(Cl)cc1C(=O)NC1CCN(CCCOc2ccc(F)cc2)CC1OC` (stereo not given) [CISAPRIDE], the IC50 result was “Not Active”.

`N=C(N)NC(=O)Cc1c(Cl)cccc1Cl` [GUANFACINE]: the IC50 result is reported as “Not Active”.

Consider `COc1cc2nc(N3CCN(C(=O)c4ccco4)CC3)nc(N)c2cc1OC` [PRAZOSIN], for which the IC50 entry was “Not Active”.

For `CCCNCC(O)COc1ccccc1C(=O)CCc1ccccc1` (stereo not given) [PROPAFENONE], the IC50 result is recorded as “Not Active”.

For `C[C@@H]1O[C@@H](O[C@@H]2C=C3CC[C@@H]4[C@H](CC[C@]5(C)[C@@H](c6ccc(=O)oc6)CC[C@]45O)[C@@]3(C)CC2)[C@H](O)[C@H](O)[C@H]1O` [PROSCILLARIDIN], the IC50 result is recorded as “Not Active”.

On to AURANOFIN, for which the IC50 result is “Not Active” and the Ki entry is listed as “Not Active”.

Take GADOPENTETATE DIMEGLUMINE: the IC50 entry is on record as “Not Active” and the Ki result is listed as “Not Active”.

Regarding GENTAMICIN, the IC50 result is reported as “Not Active” and the Ki result was “Not Active”.

As to GRAMICIDIN, the IC50 result was “Not Active” and the Ki result is listed as “Not Active”.

NYSTATIN: the IC50 entry was “Not Active” and the Ki entry is given as “Not Active”.

Another experiment has as its target T3, Cathepsin G (Homo sapiens, UniProt P08311).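 Further: inhibition of Cathepsin G enzyme activity, tested on an AMC-conjugated peptide substrate; in other assays of this panel Not Active means under 50% inhibition at 10 µM.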
T3 sequence (P08311 whole entry): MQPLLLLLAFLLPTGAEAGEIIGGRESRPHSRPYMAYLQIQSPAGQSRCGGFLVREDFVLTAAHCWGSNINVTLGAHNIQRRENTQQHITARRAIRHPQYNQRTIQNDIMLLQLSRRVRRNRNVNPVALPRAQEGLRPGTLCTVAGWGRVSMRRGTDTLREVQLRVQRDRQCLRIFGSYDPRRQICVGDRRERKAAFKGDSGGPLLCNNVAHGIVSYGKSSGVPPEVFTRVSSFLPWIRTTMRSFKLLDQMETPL
Test: not given
The format is tissue-based. As to conditions: neutrophil.
In the case of `COc1cc(N)c(Cl)cc1C(=O)NC1CCN(CCCOc2ccc(F)cc2)CC1OC` (stereo not given) [CISAPRIDE], the IC50 entry was “Not Active”.

For `N=C(N)NC(=O)Cc1c(Cl)cccc1Cl` [GUANFACINE], the IC50 result is recorded as “Not Active”.

Take `COc1cc2nc(N3CCN(C(=O)c4ccco4)CC3)nc(N)c2cc1OC` [PRAZOSIN]: the IC50 entry is “Not Active”.

For `CCCNCC(O)COc1ccccc1C(=O)CCc1ccccc1` (stereo not given) [PROPAFENONE], the IC50 entry is given as “Not Active”.

In the case of `C[C@@H]1O[C@@H](O[C@@H]2C=C3CC[C@@H]4[C@H](CC[C@]5(C)[C@@H](c6ccc(=O)oc6)CC[C@]45O)[C@@]3(C)CC2)[C@H](O)[C@H](O)[C@H]1O` [PROSCILLARIDIN], the IC50 result is “Not Active”.

For AURANOFIN, the IC50 entry was “Not Active” and the Ki entry was “Not Active”.

Turning to GADOPENTETATE DIMEGLUMINE, the IC50 entry is “Not Active” and the Ki result is reported as “Not Active”.

As for GENTAMICIN, the IC50 entry is “Not Active” and the Ki entry is reported as “Not Active”.

On to GRAMICIDIN, for which the IC50 entry is recorded as “Not Active” and the Ki result was “Not Active”.

NYSTATIN: the IC50 result is listed as “Not Active” and the Ki result was “Not Active”.
